Data on three compounds can be found in US4053604A (priority 1975, dated 1977).

Series [1] can be described thus: tail-flick test, analgesic activity of the agent alone. It is filed as in vivo, albino mice. As to conditions: for ED50: Mus musculus, ip, 0.25 h, i.p., dose which increased analgesia by 50% when tested 15 minutes after drug administration. The text has this:
(§1) In the following experiments, phenoperidine and Compound I are used in the form of their hydrochloride salt and droperidol in the form of its free base in the presence of lactic acid for adjustment to pH to 3.4. Results are expressed on the basis of the form of the drug employed (i.e., free base or hydrochloride salt).
(§2) Results of such tests using albino mice are illustrated by tables 1,2 and 3 in which the neuroleptic agent, droperidol, is included for comparative purposes.
*The dose which increased analgesia by 50% when tested 15 minutes after […]
In general terms: Hot-plate and tail-flick tests time the reaction to a heat stimulus.

Series [2] can be described thus: tail-flick test, potentiation of the analgesic activity of phenoperidine. It is filed as in vivo, albino mice.
From the text: as §1, §2
Potentiation of the Analgesic Activity (ED50) of Phenoperidine,
i.e. 0.5 mg/kg, by varying Doses of Neuroleptic Agents.
*PD50 refers to the dose of the neuroleptic which increased the
analgesic activity (ED50) of phenoperidine by 50%.
Modified Analgesic Activity of Phenoperidine in
the Presence of the Neuroleptic PD50. -
*ED50 refers to the analgesic activity of phenoperidine after
pretreatment with a fixed dose (PD50) of the neuroleptic agents.

A short description of series [3]: respiratory minute volume and mean arterial blood pressure in rats. It is filed as in vivo. How it is done: These effects are less than those encountered with neuroleptics presently available for NLA as evidenced by laboratory experiments in rats in which these cardiovascular parameters are measured before and after the administration of Compound 1 and the neuroleptic agent droperidol, see Table 8.
The Effect of Compound 1 and Droperidol on Respiratory Minute Volume
and Mean Arterial Blood Pressure

The nature of series [4]: induction time of rats exposed to halothane anesthesia (loss of righting reflex). The format is in vivo, male albino rats (Sprague-Dawley). How it is done: (§3) The effects of Compound I on halothane-induced anesthesia were assessed using 20 rats for each dose or time interval determination. The experiments were performed on male albino rats (Sprague-Dawley) weighing from 180-220 g. A schematic representation of the apparatus used is illustrated in FIG. 1. The apparatus consists of a rectangular box made of transparent plastic (115 cm long × 28 cm high × 28 cm wide) which is divided into 4 equal chambers by perforated walls. The box rotates around a hollow axis through which gases can be delivered at several proportions from cylinders, through their respective flowmeters. An in-line halothane vaporizer is placed just before the gases reach the chambers. There is an air-tight door to every chamber through which two animals, one treated and one control, are introduced. The gases are delivered at one end of the box and suction is applied to the other end to take up the gases after flowing through the chambers. An in-line water manometer monitors the resulting pressure. This pressure is kept at 0-5 mm H2 O to make certain the gases in the anesthetic chambers remain at atmospheric pressure. The mixture of gases is delivered at a rate of 15 l/min. The inhalation anesthetic gases are delivered for ten minutes prior to the introduction of the animals into the chambers to assure an even distribution in the four chambers. The chambers rotate at four rev/min forcing the animals to tumble and allowing the experimenter to accurately time the loss and recovery of the righting reflex. Induction times are recorded as the time interval elapsed between the beginning of exposure of the animals to the gases and the moment in which they lose their righting reflex.
(§4) Groups of control animals (four at a time) were subjected to halothane concentrations ranging from 0.5 to 2.5% in a mixture of 95% O2 -5% CO2, and the induction times thus obtained were used to calculate concentration-reponse curves. Since a certain time elapsed between putting the first and the last rat into their respective chambers, each animal was timed separately with a stopwatch. […] This intermediate concentration of halothane was then used to study the effects of increasing doses of the test compound on the induction times and anesthesia times.
(§5) The animals were pretreated by administering the test compounds in dosages ranging from 10 to 500 μg/kg, i.v., at 5, 30, 60, 120, 240 and 360 minutes prior to their exposure to halothane. As soon as all animals lost their righting reflex, the O2 -halothane flow was discontinued and replaced by an equal flow of air. The animals were allowed to remain in the rotating chambers until they regained their righting reflex. Anesthesia times were determined as the interval between the time required to lose and the time to regain the righting reflex. Air flushing of the anesthetic chambers was performed after each determination and the entire procedure repeated with another group of animals for the determination of the effect of a new dose or concentration.
(§6) Drugs used in this study include: droperidol, phenoperidine hydrochloride, halothane and Compound I in the form of its hydrochloride salt. Phenoperidine hydrochloride and Compound I (hydrochloride) were dissolved separately in a warm solution of 0.9% sodium chloride. Droperidol was suspended in saline with the aid of a drop ot Tween 80 (Tween 80 is a registered trademark for a complex mixture of polyoxyethylene ethers of mixed partial oleic esters of sorbitol anhydride). Dosages are expressed in this study as the salt form of the compound where applicable. When the experimental protocol called for the concomitant administration of two drugs, these were mixed in the syringe and administered intravenously. The drugs were injected in a volume of 0.1 ml/100 g body weight.
(§7) The statistical analysis of the data was performed using Student's […]. […]

Series [5] in a line: anesthesia time of rats exposed to halothane anesthesia (recovery of righting reflex). The format is in vivo, male albino rats (Sprague-Dawley). As to conditions: phenoperidine hydrochloride 25 μg/kg, i.v.; in words. How it is done: as §3, §4, §5, §6, §7
Series [6] is described as follows: behavioral changes and side effects in cebus monkeys. It is filed as in vivo. As to conditions: for Behavioral Changes / Side Effects / Duration / Onset / times at which the side effect was observed: Phenoperidine, individual monkey.

“And” between values parts separate entries of the source, which are not always exact repeats. Equal entries are not always repeated.

The compound `O=C(CCCN1CC=C(n2c(=O)[nH]c3ccccc32)CC1)c1ccc(F)cc1` [droperidol, reference compound] yielded a 50% effective dose (ED50) in series [1] of more than 30 mg/kg. Besides, the “analgesic activity when given alone” value in series [1] (in words) is “no analgesic activity could be demonstrated”. Further, in series [2] (in words), the “enhancement of analgesic activity of phenoperidine by concomitant administration” value was “significantly enhanced” and the “relative potentiating activity, Compound I versus droperidol” value is listed as “equiactive”. For the same compound, the “PD50 of Neuroleptic Agent (dose which increased the analgesic activity (ED50) of phenoperidine by 50%)” value in series [2] (mouse, in vivo, ip) was 0.55 ± 0.10 mg/kg. For the same compound, in series [3] (25 μg/kg), the “Change in Mean B.P. as % of Control” value is recorded as -28.4 ± 4.6 % of Control and the “Change in Minute Volume as % of Control” value is “+13.9 ± 3.0 % of Control”. Besides, in series [3] (100 μg/kg), the “Change in Mean B.P. as % of Control” value is -15.4 ± 5.9 % of Control and the “Change in Minute Volume as % of Control” value is listed as “+15.6 ± 6.2 % of Control”. Also, in series [3] (250 μg/kg), the “Change in Mean B.P. as % of Control” value is -26.9 ± 3.2 % of Control and the “Change in Minute Volume as % of Control” value is listed as “+27.3 ± 8.1 % of Control”.
Consider `FC(F)(F)C(Cl)Br` (centres unmarked) [halothane, reference compound], for which the “induction time, halothane alone (average)” value in series [4] (control experiments, 1% halothane in 95% O2-5% CO2) amounted to 2.4 min.
For `CCOC(=O)C1(c2ccccc2)CCN(CCC(O)c2ccccc2)CC1` (centres unmarked) [phenoperidine, 1-(3-hydroxy-3-phenylpropyl)-4-phenylisonipecotic acid ethyl ester, reference compound], the ED50 in series [1] stood at 0.5 ± 0.1 mg/kg. The “effect on induction time of rats anesthetized with halothane” value in series [4] (phenoperidine hydrochloride 25 μg/kg, i.v., in words) is “did not modify”. For the same compound, the “effect on anesthesia time of rats anesthetized with halothane” value in series [5] is “did not modify”. The undesirable side effects result in series [6] (50-100 μg/kg, in words) is “salivation and vomiting were consistently observed”. Also, in series [6] (10 μg/kg i.v.), the “Behavioral Changes” value is “None” and the “Side Effects” value is on record as “None”. Also, in series [6] (50 μg/kg i.v.), the “Behavioral Changes” value was “Sedation and None”; the Duration is 1 h and > 3 h; the Onset came out at 5 min; the “Side Effects” value was “Salivation and Vomit and None”. For the same compound, the “times at which the side effect was observed” value in series [6] (50 μg/kg i.v.) is 15 min and 10 to 15 min. The “times at which the side effect was observed” value in series [6] (100 μg/kg i.v., Vomit) was 5 to 25 min and 20 to 45 min. In addition, in series [6] (100 μg/kg i.v.), the “Behavioral Changes” value is recorded as “Sedation”, the Duration amounted to 1 h, the Onset came to 5 min and the “Side Effects” value is on record as “Vomit”. The “doses producing the main beneficial effect (sedation) and undesirable side effects” value in series [6] (phenoperidine i.v.) lay within 0.05 to 0.1 mg/kg.

One may read the ED50 as the dose at which the effect has come halfway, by size or by number of responders.
